Experiments:
Assay type in all cases: in vivo
Culex pipiens pallens = experiment: Activity of killing Culex pipiens pallens larvae; details: for Mortality: 10 ppm, 4th instar mosquito larvae in water, 24 h
Method: 2) Activity of killing Culexpipiens pallens larval: Culicides pallens, a normal indoor population. Weigh about 5 mg of the test compound into a penicillin vial, add 5 mL of acetone (or a suitable solvent), and shake to dissolve, i.e. 1000 μg·ml^−1 mother liquor. 0.5 mL mother liquor was removed and added into a 100 mL beaker containing […] of water. Ten 4th instar mosquito larvae were selected and poured into the beaker together with 10 mL of feeding liquid. The concentration of the liquid medicine was 10 μg·ml^−1. Place the treatment in the standard treatment room, and check the results 24 h. The blank control was an aqueous solution containing 0.5 mL of test solvent.

[1] = test system: Ostrinia nubilalis Hubner; experiment: Activity of killing Ostrinia nubilalis Hubner (leaf soaking method); details: for Mortality: 600 ppm (table), 3rd instar larvae, corn leaf dipping, 72 hours
Text: 4) Activity of killing Ostrinia nubilalis Hubner: Ostrinia nubilalis Hubner, a normal population raised indoors. Test method: leaf soaking method. In the leaf dipping method, corn leaves are dipped in a liquid medicine prepared by acetone ([…]), 10 3rd instar larvae are inoculated into a culture dish after the liquid medicine is dried, and 30 test larvae are shared for three times, mainly gastric toxicity and contact killing effects, and the feeding phenomenon of the larvae is observed. Mortality was examined 72 hours later.

Mythimna separata Walker = experiment: Activity of killing Mythimna separata Walker (leaf dipping method); details: for Mortality: 4th instar larvae, corn leaf dipping, 24 hours
Method: 1) Activity of killing Mythimna separata Walker: Mythimna separata Walker, a normal population raised indoors. In the leaf dipping method, corn leaves are dipped in a liquid medicine ([…]) prepared by acetone, and the 4th instar larvae are inoculated after the liquid medicine, mainly for stomach toxicity and contact killing, and the feeding phenomenon of the larvae is observed. Mortality was examined 24 hours.

Helicoverpa armigera = experiment: Activity of killing Helicoverpa armigera (leaf soaking method); details: for Mortality: 600 ppm, third-instar larvae, corn leaf soaking, 72 hours
Method: 3) Activity of killing Helicoverpa armigera:Helicoverpa armigera, a normal population raised indoors. Test method: leaf soaking method. In the leaf soaking method, corn leaves are soaked in a liquid medicine prepared by acetone (600 ppm, 600 mg/L), ground and put into 24 holes after the liquid medicine is dried, one third-instar larva is inserted into each hole, 10 are used for each time, and three times are repeated, a total of 30 test insects are tested, mainly gastric toxicity and contact killing effects, and the feeding phenomenon of the larva is observed. Mortality was examined 72 hours later.

SMILES	Mortality (Culex pipiens pallens)	Mortality [1]	Mortality (Mythimna separata Walker; 600 ppm)	Mortality (Helicoverpa armigera)	lethal rate to Ostrinia nubilalis Hubner ([1]; concentration of 600 ppm)	Mortality (Mythimna separata Walker; 200 ppm)	lethal rate to armyworm (Mythimna separata Walker; concentration of 200 ppm)	lethal rate to cotton bollworm (Helicoverpa armigera; concentration of 600 ppm)	lethal rate to Culex pipiens larvae (Culex pipiens pallens; concentration of 10 ppm)
CC1(C)CC(=O)C(C(=O)Nc2ccccc2)=C(Nc2ccccc2)C1 [compound 3c]	80%	15%	30%	10%					
CCC1CC(=O)C(C(=O)Nc2ccccc2)=C(Nc2ccccc2)C1 (centres unmarked) [compound 3d]	20%	100%		100%	100%	100%	100%	100%	
CCCC1CC(=O)C(C(=O)Nc2ccccc2)=C(Nc2ccccc2)C1 (centres unmarked) [compound 3e]	100%	30%	55%	25%					100%
CC1CC(=O)C(C(=O)Nc2ccccc2)=C(Nc2ccccc2)C1 (centres unmarked) [compound 3b]	70%	20%	35%	15%					

Source: US11453638B2, “Process method for producing pesticide by using carbon dioxide” (Nankai University, priority 2018, dated 2022)
